Consider 23 compounds from patent publication US9273040B2 (Merck Sharp & Dohme Corp., priority 2011, dated 2016).

Test [1] addresses T1, human Nav1.7 channels stably expressed in HEK 293 cells (Homo sapiens, UniProt Q15858).
T1 construct: expressed in transfected cells
The test can be described thus: PatchXpress 7000 automated patch-clamp, sodium current. The test is classed as cell-based. To be noted: 22° C. Summed up: (§1)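 IC50 values came from Hill-equation fits of rundown-corrected inhibition. PatchXpress recordings at 22° C held cells 20 mV negative to V0.5 inact and applied 10 Hz trains of 30 ms steps to −20 mV (Nav1.7) or an 8000 ms prepulse 7 mV positive to V0.5 inact. […]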
(In general: Patch clamp records ionic current or voltage across a cell membrane.)

The target in test [2] is T2, human Nav1.5 channels stably expressed in HEK 293 cells (Homo sapiens, UniProt Q14524).
T2 construct: expressed in transfected cells
Described as above. The note with it: selectivity over Nav1.5. The test is classed as cell-based. Summed up: as §1

The mark [3] stands for this setting: read-out: potency for the Nav 1.7 sodium ion channel (as measured by PatchXpress).

Molecules are shown by their SMILES. Where two headings read alike, the source gives them in different places.

T1 sequence (Q15858 whole entry): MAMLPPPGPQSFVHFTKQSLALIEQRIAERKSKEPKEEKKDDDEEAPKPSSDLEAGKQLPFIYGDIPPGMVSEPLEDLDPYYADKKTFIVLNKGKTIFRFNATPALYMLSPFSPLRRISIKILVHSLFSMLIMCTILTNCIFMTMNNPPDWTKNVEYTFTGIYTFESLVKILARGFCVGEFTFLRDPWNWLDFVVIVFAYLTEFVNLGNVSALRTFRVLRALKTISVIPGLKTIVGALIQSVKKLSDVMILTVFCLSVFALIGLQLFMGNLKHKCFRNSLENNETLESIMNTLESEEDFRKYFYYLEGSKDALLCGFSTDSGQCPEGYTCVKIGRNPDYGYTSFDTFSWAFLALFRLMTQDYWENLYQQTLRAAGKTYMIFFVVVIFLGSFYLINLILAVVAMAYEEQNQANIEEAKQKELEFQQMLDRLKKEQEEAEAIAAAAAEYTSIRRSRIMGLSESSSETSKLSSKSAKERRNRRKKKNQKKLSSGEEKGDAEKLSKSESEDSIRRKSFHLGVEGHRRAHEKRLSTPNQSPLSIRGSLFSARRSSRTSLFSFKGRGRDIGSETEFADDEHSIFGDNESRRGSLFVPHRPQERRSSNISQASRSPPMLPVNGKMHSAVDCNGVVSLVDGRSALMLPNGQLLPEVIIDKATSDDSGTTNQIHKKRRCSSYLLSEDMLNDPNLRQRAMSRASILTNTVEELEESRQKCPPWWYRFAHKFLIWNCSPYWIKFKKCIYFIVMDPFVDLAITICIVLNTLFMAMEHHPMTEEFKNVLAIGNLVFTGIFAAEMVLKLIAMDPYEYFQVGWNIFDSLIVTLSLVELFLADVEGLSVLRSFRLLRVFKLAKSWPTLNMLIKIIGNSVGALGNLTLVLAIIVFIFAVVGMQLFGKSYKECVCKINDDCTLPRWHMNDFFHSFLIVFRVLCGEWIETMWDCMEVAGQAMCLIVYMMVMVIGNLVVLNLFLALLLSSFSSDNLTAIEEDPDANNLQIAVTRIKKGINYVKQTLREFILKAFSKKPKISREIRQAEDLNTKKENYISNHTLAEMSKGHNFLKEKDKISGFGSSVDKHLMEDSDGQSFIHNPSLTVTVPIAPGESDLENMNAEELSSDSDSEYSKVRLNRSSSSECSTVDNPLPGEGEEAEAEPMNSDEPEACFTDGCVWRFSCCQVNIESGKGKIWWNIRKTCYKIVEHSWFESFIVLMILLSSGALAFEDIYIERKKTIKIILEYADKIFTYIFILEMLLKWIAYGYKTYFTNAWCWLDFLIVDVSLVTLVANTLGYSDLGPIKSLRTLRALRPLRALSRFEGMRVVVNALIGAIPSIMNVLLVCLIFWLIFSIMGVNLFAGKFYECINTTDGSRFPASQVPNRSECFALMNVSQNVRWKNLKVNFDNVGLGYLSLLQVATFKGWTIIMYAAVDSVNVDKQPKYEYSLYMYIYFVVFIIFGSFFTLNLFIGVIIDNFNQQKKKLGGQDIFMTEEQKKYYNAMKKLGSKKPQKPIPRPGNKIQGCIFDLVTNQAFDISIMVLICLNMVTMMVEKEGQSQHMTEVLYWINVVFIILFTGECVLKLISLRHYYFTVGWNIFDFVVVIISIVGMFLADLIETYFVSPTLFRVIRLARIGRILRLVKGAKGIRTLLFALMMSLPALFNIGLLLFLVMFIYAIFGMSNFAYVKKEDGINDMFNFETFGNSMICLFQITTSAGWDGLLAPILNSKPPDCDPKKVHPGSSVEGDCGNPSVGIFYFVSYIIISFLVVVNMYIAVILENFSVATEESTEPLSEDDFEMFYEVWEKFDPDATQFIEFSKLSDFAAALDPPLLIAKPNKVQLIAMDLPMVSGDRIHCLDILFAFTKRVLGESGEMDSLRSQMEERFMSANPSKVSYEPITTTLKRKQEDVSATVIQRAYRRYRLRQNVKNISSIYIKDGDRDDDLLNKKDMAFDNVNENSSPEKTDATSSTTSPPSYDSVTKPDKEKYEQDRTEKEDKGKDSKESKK
T2 sequence (Q14524 whole entry): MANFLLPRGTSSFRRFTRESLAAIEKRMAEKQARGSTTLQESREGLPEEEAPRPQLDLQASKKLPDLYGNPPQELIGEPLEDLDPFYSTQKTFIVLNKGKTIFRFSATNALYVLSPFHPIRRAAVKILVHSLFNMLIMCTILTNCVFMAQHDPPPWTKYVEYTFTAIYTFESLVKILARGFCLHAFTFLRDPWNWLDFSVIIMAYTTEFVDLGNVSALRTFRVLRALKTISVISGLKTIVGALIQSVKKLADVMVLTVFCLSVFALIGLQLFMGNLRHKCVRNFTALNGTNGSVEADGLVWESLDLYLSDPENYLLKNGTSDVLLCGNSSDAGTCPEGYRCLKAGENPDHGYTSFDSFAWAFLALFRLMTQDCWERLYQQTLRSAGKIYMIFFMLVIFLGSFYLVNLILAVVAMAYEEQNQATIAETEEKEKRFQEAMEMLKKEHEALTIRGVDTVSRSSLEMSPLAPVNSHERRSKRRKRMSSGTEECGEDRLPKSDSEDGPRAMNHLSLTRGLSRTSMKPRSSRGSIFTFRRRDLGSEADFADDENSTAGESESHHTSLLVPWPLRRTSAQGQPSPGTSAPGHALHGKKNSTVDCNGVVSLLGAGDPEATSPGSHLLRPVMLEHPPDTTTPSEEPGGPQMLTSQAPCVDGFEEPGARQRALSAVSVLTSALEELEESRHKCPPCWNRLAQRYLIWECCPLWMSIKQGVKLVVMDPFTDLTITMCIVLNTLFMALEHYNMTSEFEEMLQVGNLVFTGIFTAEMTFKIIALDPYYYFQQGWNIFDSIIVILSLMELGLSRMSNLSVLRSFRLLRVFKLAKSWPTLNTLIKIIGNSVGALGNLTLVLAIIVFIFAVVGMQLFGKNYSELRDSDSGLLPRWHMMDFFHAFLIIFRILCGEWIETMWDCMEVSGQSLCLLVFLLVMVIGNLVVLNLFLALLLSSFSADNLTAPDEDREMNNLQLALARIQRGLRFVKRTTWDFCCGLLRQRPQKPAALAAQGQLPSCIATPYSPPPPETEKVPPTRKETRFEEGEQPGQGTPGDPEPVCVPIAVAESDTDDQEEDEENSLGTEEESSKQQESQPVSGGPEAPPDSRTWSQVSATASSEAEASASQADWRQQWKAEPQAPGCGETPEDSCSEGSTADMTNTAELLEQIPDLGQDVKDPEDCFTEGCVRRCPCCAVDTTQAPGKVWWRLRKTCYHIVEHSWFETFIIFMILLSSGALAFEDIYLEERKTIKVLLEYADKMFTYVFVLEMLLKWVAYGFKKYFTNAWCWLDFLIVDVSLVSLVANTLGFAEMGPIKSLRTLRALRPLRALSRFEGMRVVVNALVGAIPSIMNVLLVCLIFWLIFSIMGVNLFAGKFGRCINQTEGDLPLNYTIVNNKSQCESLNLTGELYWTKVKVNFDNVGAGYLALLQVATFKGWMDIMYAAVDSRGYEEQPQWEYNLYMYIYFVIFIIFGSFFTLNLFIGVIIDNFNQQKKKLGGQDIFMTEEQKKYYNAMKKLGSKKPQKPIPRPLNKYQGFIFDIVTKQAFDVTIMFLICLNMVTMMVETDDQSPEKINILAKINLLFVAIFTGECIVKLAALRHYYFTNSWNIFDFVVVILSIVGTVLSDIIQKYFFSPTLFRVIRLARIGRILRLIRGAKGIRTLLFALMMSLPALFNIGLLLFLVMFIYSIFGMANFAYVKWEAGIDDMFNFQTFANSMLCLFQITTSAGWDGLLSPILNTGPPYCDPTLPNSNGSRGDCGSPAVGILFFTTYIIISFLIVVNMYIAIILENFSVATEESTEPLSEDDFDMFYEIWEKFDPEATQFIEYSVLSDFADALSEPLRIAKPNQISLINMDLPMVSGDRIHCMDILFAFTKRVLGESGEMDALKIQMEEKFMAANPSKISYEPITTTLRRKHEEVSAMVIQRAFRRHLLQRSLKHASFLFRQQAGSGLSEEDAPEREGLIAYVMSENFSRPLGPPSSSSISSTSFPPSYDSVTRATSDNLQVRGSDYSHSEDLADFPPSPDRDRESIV

Regarding `C[C@H](c1cccc(-c2ccn(C)n2)c1)n1c(=O)oc2cc(S(=O)(=O)Nc3ncns3)c(F)cc21` [Compound 28-3, (R)-5-Fluoro-3-(1-(3-(1-methyl-1H-pyrazol-3-yl)phenyl)ethyl)-2-oxo-N-(1,2,4-thiadiazol-5-yl)-2,3-dihydrobenzo[d]oxazole-6-sulfonamide], the IC50 in test [1] (setting [3]) came to 306 nM. The “ratio of Nav 1.5:Nav 1.7 potency, determined by PatchXpress measurement” value (“ratio of Nav 1.5:Nav 1.7 potency” below) in test [2] was 86.

As for `C[C@H](c1cccc(-c2ccc(O)nc2)c1)n1c(=O)oc2cc(S(=O)(=O)Nc3ncns3)c(F)cc21` [Compound 28-4, 5-fluoro-3-{(1R)-1-[3-(6-hydroxypyridin-3-yl)phenyl]ethyl}-2-oxo-N-1,2,4-thiadiazol-5-yl-2,3-dihydro-1,3-benzoxazole-6-sulfonamide], the IC50 in test [1] (setting [3]) was found to be 107 nM. Besides, in test [2], the “ratio of Nav 1.5:Nav 1.7 potency” value worked out at 181.

In the case of `Cc1n[nH]cc1-c1cccc([C@@H](C)n2c(=O)oc3cc(S(=O)(=O)Nc4ncns4)c(F)cc32)c1` [Compound 28-5, 5-fluoro-3-{(1R)-1-[3-(3-methyl-1H-pyrazol-4-yl)phenyl]ethyl}-2-oxo-N-1,2,4-thiadiazol-5-yl-2,3-dihydro-1,3-benzoxazole-6-sulfonamide], the IC50 in test [1] (setting [3]) turned out to be 48 nM. Also, the “ratio of Nav 1.5:Nav 1.7 potency” value in test [2] came to 64.

With `CC(c1cccc(-c2ccnc(CO)c2)c1)n1c(=O)oc2cc(S(=O)(=O)Nc3ncns3)c(F)cc21` (stereo not shown) [Compound 29-3, 5-fluoro-3-(1-{3-[2-(hydroxymethyl)pyridin-4-yl]phenyl}ethyl)-2-oxo-N-1,2,4-thiadiazol-5-yl-2,3-dihydro-1,3-benzoxazole-6-sulfonamide], the IC50 in test [1] (setting [3]) was determined as 216 nM. The “ratio of Nav 1.5:Nav 1.7 potency” value in test [2] was 61.

Take `CC(c1cccc(-c2cccnc2)c1)n1c(=O)oc2cc(S(=O)(=O)Nc3ncns3)c(F)cc21` (stereo not shown) [Compound 29-4, 5-fluoro-2-oxo-3-[1-(3-pyridin-3-ylphenyl)ethyl]-N-1,2,4-thiadiazol-5-yl-2,3-dihydro-1,3-benzoxazole-6-sulfonamide]: the IC50 in test [1] (setting [3]) is 162 nM. Further, in test [2], the “ratio of Nav 1.5:Nav 1.7 potency” value came to 57.

Regarding `C[C@H](c1cccc(C#CCN)c1)n1c(=O)oc2cc(S(=O)(=O)Nc3ncns3)c(F)cc21` [Compound 30-3, (R)-3-(1-(3-(3-aminoprop-1-yn-1-yl)phenyl)ethyl)-5-fluoro-2-oxo-N-(1,2,4-thiadiazol-5-yl)-2,3-dihydrobenzo[d]oxazole-6-sulfonamide], in test [1] (setting [3]), the IC50 amounted to 28 nM. For the same compound, in test [2], the “ratio of Nav 1.5:Nav 1.7 potency” value is 289.

For `C[C@H](c1cccc(C#CC2(N)CCCCC2)c1)n1c(=O)oc2cc(S(=O)(=O)Nc3ncns3)c(F)cc21` [Compound 30-4], the IC50 in test [1] (setting [3]) was 10 nM. For the same compound, the “ratio of Nav 1.5:Nav 1.7 potency” value in test [2] is 309.

As for `C[C@H](c1ccccc1C1CNC1)n1c(=O)oc2cc(S(=O)(=O)Nc3ncns3)c(F)cc21` [Compound 31-1, (R)-3-(1-(2-(azetidin-3-yl)phenyl)ethyl)-5-fluoro-2-oxo-N-(1,2,4-thiadiazol-5-yl)-2,3-dihydrobenzo[d]oxazole-6-sulfonamide], in test [1] (setting [3]), the IC50 came out at 15 nM. Further, in test [2], the “ratio of Nav 1.5:Nav 1.7 potency” value was 603.

`C[C@H](c1ccccc1C1(O)CNC1)n1c(=O)oc2cc(S(=O)(=O)Nc3ncns3)c(F)cc21` [Compound 32-4, (R)-5-fluoro-3-(1-(2-(3-hydroxyazetidin-3-yl)phenyl)ethyl)-2-oxo-N-(1,2,4-thiadiazol-5-yl)-2,3-dihydrobenzo[d]oxazole-6-sulfonamide]: in test [1] (setting [3]), the IC50 stood at 34 nM. Also, the “ratio of Nav 1.5:Nav 1.7 potency” value in test [2] came out at 110.

For `C[C@H](c1ccccc1C1(F)CNC1)n1c(=O)oc2cc(S(=O)(=O)Nc3ncns3)c(F)cc21` [Compound 32-6, (R)-5-Fluoro-3-(1-(2-(3-fluoroazetidin-3-yl)phenyl)ethyl)-2-oxo-N-(1,2,4-thiadiazol-5-yl)-2,3-dihydrobenzo[d]oxazole-6-sulfonamide], in test [1] (setting [3]), the IC50 was 18 nM. Further, the “ratio of Nav 1.5:Nav 1.7 potency” value in test [2] came out at 1333.

For `C[C@H](c1ccccc1CCCN)n1c(=O)oc2cc(S(=O)(=O)Nc3ncns3)c(F)cc21` [Compound 33-7, (R)-3-(1-(2-(3-Aminopropyl)phenyl)ethyl)-5-fluoro-2-oxo-N-(1,2,4-thiadiazol-5-yl)-2,3-dihydrobenzo[d]oxazole-6-sulfonamide], the IC50 in test [1] (setting [3]) was 51 nM. Also, the “ratio of Nav 1.5:Nav 1.7 potency” value in test [2] is 166.

For `C[C@@H](c1ccccc1CCCN)n1c(=O)oc2cc(S(=O)(=O)Nc3ncns3)c(F)cc21` [Compound 33-8], the IC50 in test [1] (setting [3]) worked out at 168 nM. Besides, in test [2], the “ratio of Nav 1.5:Nav 1.7 potency” value turned out to be 179.

Turning to `C[C@H](c1ccccc1C1=CCNCC1)n1c(=O)oc2cc(S(=O)(=O)Nc3ncns3)c(Cl)cc21.Cl` [Compound 34-6, (R)-5-chloro-2-oxo-3-(1-(2-(1,2,3,6-tetrahydropyridin-4-yl)phenyl)ethyl)-N-(1,2,4-thiadiazol-5-yl)-2,3-dihydrobenzo[d]oxazole-6-sulfonamide hydrochloride], the IC50 in test [1] (potency for the Nav 1.7 sodium ion channel (as measured by PatchXpress)) was 25 nM. Moreover, in test [2], the “ratio of Nav 1.5:Nav 1.7 potency” value amounted to 1200.

With `C[C@H](c1ccccc1C#CCN)n1c(=O)oc2cc(S(=O)(=O)Nc3ncns3)c(Cl)cc21` [Compound 34-8, 3-{(1R)-1-[2-(3-aminoprop-1-yn-1-yl)phenyl]ethyl}-5-chloro-2-oxo-N-1,2,4-thiadiazol-5-yl-2,3-dihydro-1,3-benzoxazole-6-sulfonamide], the IC50 in test [1] (setting [3]) is 40 nM. In addition, the “ratio of Nav 1.5:Nav 1.7 potency” value in test [2] worked out at 40.

Turning to `C[C@H](c1cccc2c1CNCC2)n1c(=O)oc2cc(S(=O)(=O)Nc3ncns3)c(Br)cc21` [Compound 35-5, (R)-5-bromo-2-oxo-3-(1-(1,2,3,4-tetrahydroisoquinolin-8-yl)ethyl)-N-(1,2,4-thiadiazol-5-yl)-2,3-dihydrobenzo[d]oxazole-6-sulfonamide], in test [1] (setting [3]), the IC50 amounted to 16 nM. Also, the “ratio of Nav 1.5:Nav 1.7 potency” value in test [2] was determined as 932.

Consider `C[C@H](c1ccccc1C#CCN)n1c(=O)oc2cc(S(=O)(=O)Nc3ncns3)c(Br)cc21` [Compound 35-6, 3-{(1R)-1-[2-(3-aminoprop-1-yn-1-yl)phenyl]ethyl}-5-bromo-2-oxo-N-1,2,4-thiadiazol-5-yl-2,3-dihydro-1,3-benzoxazole-6-sulfonamide], for which the IC50 in test [1] (setting [3]) stood at 27 nM. Besides, the “ratio of Nav 1.5:Nav 1.7 potency” value in test [2] was 334.

In the case of `C[C@H](c1ccccc1C1=CCN(S(C)(=O)=O)CC1)n1c(=O)oc2cc(S(=O)(=O)Nc3ncns3)c(Cl)cc21` [Compound 36-1, (R)-5-chloro-3-(1-(2-(1-(methylsulfonyl)-1,2,3,6-tetrahydropyridin-4-yl)phenyl)ethyl)-2-oxo-N-(1,2,4-thiadiazol-5-yl)-2,3-dihydrobenzo[d]oxazole-6-sulfonamide], the IC50 in test [1] (setting [3]) came out at 527 nM. Moreover, the “ratio of Nav 1.5:Nav 1.7 potency” value in test [2] stood at 54.

On to `C[C@H](c1ccccc1C1=CCN(S(C)(=O)=O)CC1)n1c(=O)oc2cc(S(=O)(=O)Nc3ncns3)c(F)cc21` [Compound 36-3, 5-fluoro-3-[(1R)-1-{2-[1-(methylsulfonyl)-1,2,3,6-tetrahydropyridin-4-yl]phenyl}ethyl]-2-oxo-N-1,2,4-thiadiazol-5-yl-2,3-dihydro-1,3-benzoxazole-6-sulfonamide], for which the IC50 in test [1] (setting [3]) is 255 nM. Further, in test [2], the “ratio of Nav 1.5:Nav 1.7 potency” value is 88.

As to `C[C@H](c1ccccc1C#CCNS(C)(=O)=O)n1c(=O)oc2cc(S(=O)(=O)Nc3ncns3)c(Br)cc21` [Compound 36-4, 5-bromo-3-[(1R)-1-(2-{3-[(methylsulfonyl)amino]prop-1-yn-1-yl}phenyl)ethyl]-2-oxo-N-1,2,4-thiadiazol-5-yl-2,3-dihydro-1,3-benzoxazole-6-sulfonamide], in test [1] (setting [3]), the IC50 was found to be 169 nM. For the same compound, in test [2], the “ratio of Nav 1.5:Nav 1.7 potency” value came to 36.

With `C[C@H](c1cccc2c1CN(S(C)(=O)=O)CC2)n1c(=O)oc2cc(S(=O)(=O)Nc3ncns3)c(F)cc21` [Compound 36-5, 5-fluoro-3-{(1R)-1-[2-(methylsulfonyl)-1,2,3,4-tetrahydroisoquinolin-8-yl]ethyl}-2-oxo-N-1,2,4-thiadiazol-5-yl-2,3-dihydro-1,3-benzoxazole-6-sulfonamide], in test [1] (setting [3]), the IC50 turned out to be 155 nM. The “ratio of Nav 1.5:Nav 1.7 potency” value in test [2] turned out to be 35.

`C[C@H](c1ccccc1C#CCNS(C)(=O)=O)n1c(=O)oc2cc(S(=O)(=O)Nc3ncns3)c(Cl)cc21` [Compound 36-6, 5-chloro-3-[(1R)-1-(2-{3-[(methylsulfonyl)amino]prop-1-yn-1-yl}phenyl)ethyl]-2-oxo-N-1,2,4-thiadiazol-5-yl-2,3-dihydro-1,3-benzoxazole-6-sulfonamide]: the IC50 in test [1] (setting [3]) amounted to 121 nM. The “ratio of Nav 1.5:Nav 1.7 potency” value in test [2] is on record as 175.

In the case of `C[C@H](c1cccc2c1CC(NS(C)(=O)=O)CC2)n1c(=O)oc2cc(S(=O)(=O)Nc3ncns3)c(F)cc21` (stereo partly drawn) [Compound 36-7, 5-fluoro-3-[(1R)-1-{7-[(methylsulfonyl)amino]-5,6,7,8-tetrahydronaphthalen-1-yl)ethyl]-2-oxo-N-1,2,4-thiadiazol-5-yl-2,3-dihydro-1,3-benzoxazole-6-sulfonamide], the IC50 in test [1] (setting [3]) was found to be 27 nM. Besides, the “ratio of Nav 1.5:Nav 1.7 potency” value in test [2] is on record as 107.

For the compound `O=c1oc2cc(S(=O)(=O)Nc3ncns3)c(F)cc2n1[C@H](CCF)c1ccccc1` [Compound 37-3], the IC50 in test [1] (setting [3]) was determined as 132 nM. Besides, the “ratio of Nav 1.5:Nav 1.7 potency” value in test [2] turned out to be 39.
